What all share (details): average where tested multiple times
Assay [1] concerns the target T1, BCAT2 (Homo sapiens, UniProt O15382).
T1 sequence (O15382 28-392): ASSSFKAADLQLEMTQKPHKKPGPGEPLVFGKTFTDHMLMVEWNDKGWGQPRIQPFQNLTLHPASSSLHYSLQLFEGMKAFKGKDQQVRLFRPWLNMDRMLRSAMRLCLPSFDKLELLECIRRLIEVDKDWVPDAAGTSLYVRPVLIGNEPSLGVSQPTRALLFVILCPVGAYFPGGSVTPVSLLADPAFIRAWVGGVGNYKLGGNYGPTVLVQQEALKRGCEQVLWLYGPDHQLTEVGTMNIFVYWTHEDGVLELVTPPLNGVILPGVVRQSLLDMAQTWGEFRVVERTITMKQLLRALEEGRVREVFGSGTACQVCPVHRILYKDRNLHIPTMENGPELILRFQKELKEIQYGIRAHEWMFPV
Kind of assay: BCAT2 in vitro enzyme inhibition assay (resazurin/diaphorase-coupled fluorescence). The format is biochemical. An outline of the steps:
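Coupled fluorescence readout: glutamate formed from L-leucine/α-ketoglutarate transamination drives GDH/NAD/diaphorase reduction of resazurin (Ex 540/Em 590). Human BCAT2 was first exposed 1 h at room temperature to compound, top final 100 μM in 3-fold, 10-point series; substrate reaction ran 1 h before SDS quench, in technical duplicate with DMSO max and enzyme-free min controls.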

For assay [2], the target named is T1, BCAT2. Kind of assay: BCAT2 in vitro cell inhibition using engineered A549 cells (KMV cell assay, 13C6-KMV by LC-MS/MS). The format is cell-based. Also on record: The result was an engineered A549 cell line that expressed endogenous BCAT2; endogenous in cells; host or cells: A549 cells with MUT and BCAT1 knocked out by CRISPR/CAS9.
Assay [3] deals with T2, hBCAT1 (Homo sapiens, UniProt P54687).
T2 sequence (P54687 1-386): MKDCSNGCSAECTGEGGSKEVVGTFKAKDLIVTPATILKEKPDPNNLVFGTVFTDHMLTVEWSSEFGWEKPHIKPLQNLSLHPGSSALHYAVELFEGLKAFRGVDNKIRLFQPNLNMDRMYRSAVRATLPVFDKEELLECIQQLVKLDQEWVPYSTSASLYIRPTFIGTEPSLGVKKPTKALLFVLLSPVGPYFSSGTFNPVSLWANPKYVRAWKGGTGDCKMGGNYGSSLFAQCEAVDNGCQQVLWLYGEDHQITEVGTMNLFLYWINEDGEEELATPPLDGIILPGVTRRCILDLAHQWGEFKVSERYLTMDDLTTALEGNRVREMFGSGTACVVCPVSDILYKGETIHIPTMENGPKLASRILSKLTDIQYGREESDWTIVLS
The assay can be described thus: BCAT1 in vitro enzyme inhibition assay (resazurin/diaphorase-coupled fluorescence). The format is biochemical. An outline of the steps: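 Human BCAT1 activity read by resazurin/diaphorase-coupled fluorescence. Compounds added from 50× DMSO stocks at 1:50, giving 10-point 3-fold titrations from 100 μM top final concentration. Run in technical duplicate; repeat tests averaged.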
(In general: Alamar Blue is a resazurin reagent that responds to reducing activity.)

pIC50: −log10 of the molar value.

Among the data in patent publication US20260159512A1, “BCAT2 INHIBITORS” (AGIOS PHARMACEUTICALS, INC., priority 2021, published 2026) are IC50 values, retold here.

One may read the pIC50 as the IC50 on a negative log10 scale, so that one unit is a factor of ten. With `CC(C)Cc1nc2cnc(-n3ncc(CO)n3)cc2n1[C@@H]1CCC[C@H](NC(=O)c2ncc(Cl)s2)C1` [Example 337, 5-chloro-N-((1S,3R)-3-(6-(4-(hydroxymethyl)-2H-1,2,3-triazol-2-yl)-2-isobutyl-1H-imidazo[4,5-c]pyridin-1-yl)cyclohexyl)thiazole-2-carboxamide], the figures for the pIC50 in assay [1], in assay [2] and in assay [3] were not below 7.00, 6.00 to 6.30 and more than 6.30, respectively.

For `O=C(N[C@H]1CCC[C@@H](n2c(-c3c(O)cccc3F)nc3cnc(-c4nc[nH]n4)cc32)C1)c1ccc(Cl)s1` [Example 338, 5-chloro-N-((1S,3R)-3-(2-(2-fluoro-6-hydroxyphenyl)-6-(1H-1,2,4-triazol-3-yl)-1H-imidazo[4,5-c]pyridin-1-yl)cyclohexyl)thiophene-2-carboxamide], the pIC50 was not below 7.00 in assay [1], not below 7.00 in assay [2] and more than 6.30 in assay [3].

`O=C(N[C@H]1CCC[C@@H](n2c(-c3c(O)cccc3F)nc3cnc(-c4nc[nH]n4)cc32)C1)c1ncc(Cl)s1` [Example 339, 5-chloro-N-((1S,3R)-3-(2-(2-fluoro-6-hydroxyphenyl)-6-(1H-1,2,4-triazol-3-yl)-1H-imidazo[4,5-c]pyridin-1-yl)cyclohexyl)thiazole-2-carboxamide]: the values for the pIC50 in assay [1], in assay [2] and in assay [3] were not below 7.00, not below 7.00 and more than 6.30, respectively.

Turning to `O=C(N[C@H]1CCC[C@@H](n2c(-c3ccccc3O)nc3cnc(-c4nc[nH]n4)cc32)C1)c1ncc(Cl)s1` [Example 340, 5-chloro-N-((1S,3R)-3-(2-(2-hydroxyphenyl)-6-(1H-1,2,4-triazol-3-yl)-1H-imidazo[4,5-c]pyridin-1-yl)cyclohexyl)thiazole-2-carboxamide], the pIC50 in assay [1] is not below 7.00; in assay [2], not below 7.00; in assay [3] it was more than 6.30.

As for `C#Cc1ccc(C(=O)N[C@H]2CCC[C@@H](n3c(CC(C)C)nc4cnc(-c5nc[nH]n5)cc43)C2)s1` [Example 341, 5-ethynyl-N-((1S,3R)-3-(2-isobutyl-6-(1H-1,2,4-triazol-3-yl)-1H-imidazo[4,5-c]pyridin-1-yl)cyclohexyl)thiophene-2-carboxamide], the pIC50 is not below 7.00 in assay [1], not below 7.00 in assay [2] and 5.30 to 6.00 in assay [3].

For the compound `CC(C)Cc1nc2cnc(-c3nc[nH]n3)cc2n1[C@@H]1CCC[C@H](NC(=O)c2ccc(C(F)(F)F)s2)C1` [Example 342, N-((1S,3R)-3-(2-isobutyl-6-(1H-1,2,4-triazol-3-yl)-1H-imidazo[4,5-c]pyridin-1-yl)cyclohexyl)-5-(trifluoromethyl)thiophene-2-carboxamide], the pIC50 in assay [1] is not below 7.00; in assay [2] it was not below 7.00; in assay [3], more than 6.30.

As to `COc1ccc(F)c(-c2nc3cnc(-c4nc[nH]n4)cc3n2[C@@H]2CCC[C@H](NC(=O)c3ccc(Cl)s3)C2)c1` [Example 343, 5-chloro-N-((1S,3R)-3-(2-(2-fluoro-5-methoxyphenyl)-6-(1H-1,2,4-triazol-3-yl)-1H-imidazo[4,5-c]pyridin-1-yl)cyclohexyl)thiophene-2-carboxamide], the results for the pIC50 in assay [1], in assay [2] and in assay [3] were not below 7.00, 6.30 to 7.00 and 5.30 to 6.00, respectively.

Consider `CC(C)Cc1nc2cnc(-c3nc[nH]n3)cc2n1[C@@H]1CCC[C@H](NC(=O)c2ccc(C#N)s2)C1` [Example 344, 5-cyano-N-((1S,3R)-3-(2-isobutyl-6-(1H-1,2,4-triazol-3-yl)-1H-imidazo[4,5-c]pyridin-1-yl)cyclohexyl)thiophene-2-carboxamide], for which the pIC50 in assay [1] is not below 7.00; in assay [2], not below 7.00; in assay [3], more than 6.30.

As for `N#Cc1ccc(F)c(-c2nc3cnc(-c4nc[nH]n4)cc3n2[C@@H]2CCC[C@H](NC(=O)c3ccc(Cl)s3)C2)c1` [Example 345, 5-chloro-N-((1S,3R)-3-(2-(5-cyano-2-fluorophenyl)-6-(1H-1,2,4-triazol-3-yl)-1H-imidazo[4,5-c]pyridin-1-yl)cyclohexyl)thiophene-2-carboxamide], the figures for the pIC50 in assay [1], in assay [2] and in assay [3] were 6.30 to 7.00, 6.00 to 6.30 and 6.00 to 6.30, respectively.

With `CC(C)Cc1nc2cnc(-n3cc(CO)nn3)cc2n1[C@@H]1CCC[C@H](NC(=O)c2ncc(Cl)s2)C1` [Example 346, 5-chloro-N-((1S,3R)-3-(6-(4-(hydroxymethyl)-1H-1,2,3-triazol-1-yl)-2-isobutyl-1H-imidazo[4,5-c]pyridin-1-yl)cyclohexyl)thiazole-2-carboxamide], the pIC50 was 6.30 to 7.00 in assay [1], less than 6.00 in assay [2] and less than 5.30 in assay [3].

Regarding `COc1cccc(F)c1-c1nc2cnc(-c3nc[nH]n3)cc2n1[C@@H]1CCC[C@H](NC(=O)c2ccc(Cl)s2)C1` [Example 347, 5-chloro-N-((1S,3R)-3-(2-(2-fluoro-6-methoxyphenyl)-6-(1H-1,2,4-triazol-3-yl)-1H-imidazo[4,5-c]pyridin-1-yl)cyclohexyl)thiophene-2-carboxamide], the pIC50 in assay [1] is not below 7.00; in assay [2], not below 7.00; in assay [3], more than 6.30.

`COc1cccc(-c2nc3cnc(-c4nc[nH]n4)cc3n2[C@@H]2CCC[C@H](NC(=O)c3ccc(Cl)s3)C2)c1F` [Example 348, 5-chloro-N-((1S,3R)-3-(2-(2-fluoro-3-methoxyphenyl)-6-(1H-1,2,4-triazol-3-yl)-1H-imidazo[4,5-c]pyridin-1-yl)cyclohexyl)thiophene-2-carboxamide]: the pIC50 was not below 7.00 in assay [1], not below 7.00 in assay [2] and more than 6.30 in assay [3].

Take `CC(C)Cc1nc2cnc(-c3nc[nH]n3)cc2n1[C@@H]1CCC[C@H](NC(=O)c2ncc(C#N)s2)C1` [Example 349, 5-cyano-N-((1S,3R)-3-(2-isobutyl-6-(1H-1,2,4-triazol-3-yl)-1H-imidazo[4,5-c]pyridin-1-yl)cyclohexyl)thiazole-2-carboxamide]: the pIC50 was not below 7.00 in assay [1], 6.30 to 7.00 in assay [2] and more than 6.30 in assay [3].

In the case of `CC(C)Cc1nc2cnc(-n3ncc(C(C)O)n3)cc2n1[C@@H]1CCC[C@H](NC(=O)c2ncc(Cl)s2)C1` (stereo partly drawn) [Example 350, 5-chloro-N-((1S,3R)-3-(6-(4-(1-hydroxyethyl)-2H-1,2,3-triazol-2-yl)-2-isobutyl-1H-imidazo[4,5-c]pyridin-1-yl)cyclohexyl)thiazole-2-carboxamide], the pIC50 in assay [1] is not below 7.00; in assay [2] it was 6.30 to 7.00; in assay [3], 6.00 to 6.30.

As for `COc1ccc(-c2nc3cnc(-c4nc[nH]n4)cc3n2[C@@H]2CCC[C@H](NC(=O)c3ccc(Cl)s3)C2)c(F)c1` [Example 351, 5-chloro-N-((1S,3R)-3-(2-(2-fluoro-4-methoxyphenyl)-6-(1H-1,2,4-triazol-3-yl)-1H-imidazo[4,5-c]pyridin-1-yl)cyclohexyl)thiophene-2-carboxamide], the pIC50 in assay [1] was 6.30 to 7.00; in assay [2] it was 6.00 to 6.30; in assay [3] it was 5.30 to 6.00.

As for `COc1ccccc1-c1nc2cnc(-c3nc[nH]n3)cc2n1[C@@H]1CCC[C@H](NC(=O)c2ncc(Cl)s2)C1` [Example 352, 5-chloro-N-((1S,3R)-3-(2-(2-methoxyphenyl)-6-(1H-1,2,4-triazol-3-yl)-1H-imidazo[4,5-c]pyridin-1-yl)cyclohexyl)thiazole-2-carboxamide], the pIC50 in assay [1] is not below 7.00; in assay [2] it was not below 7.00; in assay [3], more than 6.30.

Consider `O=C(N[C@H]1CCC[C@@H](n2c(-c3c(O)cccc3F)nc3cnc(-n4nccn4)cc32)C1)c1ncc(Cl)s1` [Example 354, 5-chloro-N-((1S,3R)-3-(2-(2-fluoro-6-hydroxyphenyl)-6-(2H-1,2,3-triazol-2-yl)-1H-imidazo[4,5-c]pyridin-1-yl)cyclohexyl)thiazole-2-carboxamide], for which the pIC50 in assay [1] is not below 7.00; in assay [2], not below 7.00; in assay [3] it was more than 6.30.
